Measured values reported in article PMC3103436 (Journal of Translational Medicine, 2011).

How the values were obtained:
[1] = tested on: HLMs; assay: Chemical inhibition assays of BBR metabolism in HLMs; assay type: in vitro ADME, human; conditions: BBR 15 μM, inhibitor 5 μM, 30 min, control without inhibitor = 100%
Method: (§1) The incubation was performed in duplicates.
The incubations were performed in duplicates.
(§2) The flow-rate was 0.2 ml/min. […] The MS was operated in positive ESI mode. […] Data were analyzed by Xcalibur 1.2 software.

[2] = tested on: LDLR; assay: Double immune-staining and flow cytometry, cell-surface protein expression in HepG2; assay type: cell-based, human; conditions: HepG2, 8 hrs; BBR 27 μM, simvastatin 1 μM, rosiglitazone 10 μM
Method: (§3) The Human hepatoma cell line HepG2 was obtained from the American Tissue Culture Collection (ATCC, USA). […] The study compounds were diluted in culture medium prior to use. […] The corresponding isotype-matched, nonspecific mouse and rabbit IgGs were used respectively as controls for nonspecific staining. After washing in PBS, cells were stained with a fluorescein isothiocyanate (FITC)-conjugated goat anti-mouse IgG (green color, Santa Cruz Biotechnology), as well as a tetramethyl rhodamine isothiocyanate (TRITC)-conjugated goat anti-rabbit IgG (red color, Santa Cruz Biotechnology). The fluorescence intensities were analyzed in a FACS (FACSort, Becton Dickinson).

[3] = tested on: InsR; assay: as above; assay type: cell-based, human; conditions: HepG2, 8 hrs; BBR 27 μM, simvastatin 1 μM, rosiglitazone 10 μM
Method: as §3

[4] = biological target: T1, CYP2C9 (Homo sapiens, UniProt P11712); assay: BBR metabolism in recombinant human CYP450 isoenzyme; assay type: in vitro ADME; conditions: BBR 20 μM, 50 pmol/ml rCYP450, 30 min
T1 construct: purchased BD Gentest; host or cells: baculovirus-insect cells
T1 sequence (P11712 whole entry): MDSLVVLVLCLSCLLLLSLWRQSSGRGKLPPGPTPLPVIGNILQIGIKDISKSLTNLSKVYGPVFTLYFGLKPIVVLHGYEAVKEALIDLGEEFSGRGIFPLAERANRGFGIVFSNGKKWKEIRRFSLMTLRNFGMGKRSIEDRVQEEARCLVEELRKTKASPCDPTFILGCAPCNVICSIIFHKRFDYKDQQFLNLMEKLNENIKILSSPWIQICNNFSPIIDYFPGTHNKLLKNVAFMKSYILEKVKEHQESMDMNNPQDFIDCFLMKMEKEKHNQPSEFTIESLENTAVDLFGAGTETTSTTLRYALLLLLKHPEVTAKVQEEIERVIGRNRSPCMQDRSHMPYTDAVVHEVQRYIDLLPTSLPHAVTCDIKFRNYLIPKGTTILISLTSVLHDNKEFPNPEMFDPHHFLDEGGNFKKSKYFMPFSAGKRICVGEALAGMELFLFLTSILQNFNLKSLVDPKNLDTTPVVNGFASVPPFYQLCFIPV
Method: The experiment was performed with the condition described in the method using HLMs for transformation. […] Control microsome prepared from insect cells, which were infected with wild-type baculovirus, severed as a negative control. The incubation was performed in duplicates.
Sample analysis was performed using an LC-MS/MS system (Thermo-Finnigan, San Jose, CA, USA), which consisted of a Surveyor LC pump with an on-line degasser, a Surveyor autosampler and a TSQ Quantum triple-quadrupole mass spectrometer equipped with an ESI probe. A Waters XTerra® MS C18 (2.1 ×50 mm, 3.5 μm) column (Milford, MA, USA) was used for separation at 25°C. The mobile phase consisted of 0.2% acetic acid in water (A) and 100% acetonitrile (B). The flow-rate was 0.2 ml/min. […] The column was allowed to equilibrate for 10 min after each run. Only the data from 2 min to 15 min was acquired by MS. The MS was operated in positive ESI mode. Nitrogen was used as both the sheath and auxiliary gas at a pressure of 35 and 10 arbitrary units, respectively. The spray voltage was set at 4.0 kV and the capillary temperature was at 270°C. […] The most abundant product ion of each chemical was chosen for selected reaction monitoring (SRM). Data were analyzed by Xcalibur 1.2 software.

[5] = oral administration, cited from earlier work
[6] = tested on: AMPK; assay: AMPK-alpha phosphorylation immunoblot in HepG2 cells; assay type: cell-based, human; conditions: HepG2, 20 μM, 24 hrs
Method: (§4) The Human hepatoma cell line HepG2 was obtained from the American Tissue Culture Collection (ATCC, USA). HepG2 cells were grown in Eagle's Minimum Essential Medium (GIBCO) supplemented with 10% fetal bovine serum (GIBCO), 1% non-essential amino acids (GIBCO) and 1% antibiotics (100 units/ml of penicillin and 100 μg/ml of streptomycin), and incubated at 37°C in a humidified atmosphere with 5% CO2.
(§5) The study compounds were diluted in culture medium prior to use.
Sample cells were rinsed with phosphate-buffered saline and lysed in SDS-PAGE loading buffer. Cell lysates were subjected to 8% SDS-PAGE for protein separation, and protein bands were transferred onto polyvinylidene difluoride membranes (Millipore). The amount of protein and extent of phosphorylation were estimated using the following primary rabbit antibodies, anti-phospho-AMPK-α-Thr-172 antibody, anti-AMPK-α antibody as well as anti-β-actin antibody (Cell signaling Technology, USA). The secondary antibody was peroxidase-conjugated goat anti-rabbit antibody (Cell signaling Technology, USA).

[7] = tested on: LDLR mRNA; assay: LDLR mRNA real-time RT-PCR in HepG2 cells; assay type: cell-based, human; conditions: HepG2, 40 μM, 8 hrs
Method: as §4, §5
(§6) Total cellular RNAs were isolated by the Ultraspec RNA lysis solution (Biotecxs Laboratory, Houston, TX) by following the vender's instruction. Total RNAs were reversely transcribed into cDNAs using the Reverse Transcription System (Promega, Madison, WI). Quantitative real time PCR was performed with these cDNAs as described previously, with β-Actin as an internal control. Normalized InsR or LDLR mRNA expression levels were plotted as fold of the untreated control. The primers used were described previously.

[8] = tested on: InsR mRNA; assay: InsR mRNA real-time RT-PCR in HepG2 cells; assay type: cell-based, human; conditions: HepG2, 20 μM, 8 hrs, fold of untreated control
Method: as §4, §5, §6

[9] = ref [34]; cited from earlier work
[10] = BBR metabolites in rat liver after oral BBR, LC-MS/MS; assay type: in vivo, Male Wistar rats; conditions: 3 hrs after BBR oral administration 200 mg/kg; for Detection of metabolite in rat liver: LC-MS/MS; for Relative level of metabolite in rat liver: among M1-M4
Method: Male Wistar rats (200-240 g, 8-week-old) purchased from Vital River Laboratories (Beijing, China) fasted overnight and were free access to water before drug administration. […] 2 g of the liver sample was washed with 5 mL normal saline, cut into small pieces and extracted with 3-fold volume acetonitrile. After vortexed for 3 min, the extract was centrifuged at 16000 g for 15 min at 4°C and the supernatant was diluted with 0.2% acetic acid. Ten microlitre dilution aliquot was injected into the LC-MS/MS system for analysis.
as §2

[11] = tested on: rCYP450 isoenzymes; assay: Detection of BBR metabolites after incubation with rCYP450 isoenzymes; assay type: in vitro ADME, human; conditions: cell-free reaction, LC-MS/MS
Method: as §1, §2

[12] = tested on: human liver microsomes; assay: BBR metabolism in human liver microsomes (HLMs); assay type: in vitro ADME; conditions: cell-free reaction, LC-MS/MS
Method: Incubation conditions were optimized to ensure the linearity with respect to the microsomal protein concentration and incubation time. […] After incubation of the mixture in a 37°C water bath with opening to the air, the reaction lasted for 30 min and was terminated by addition of 800 μl cold acetonitrile. Internal standard (40 μg/ml ampicillin, dissolved in acetonitrile) was added into the mixture, and then centrifuged at 16000 g for 15 min at 4°C. The supernatant was aspirated, followed by dilution in 0.2% acetic acid. 10 μl of the aliquot was injected into the LC-MS/MS system for analysis. Control samples were incubated without NADPH. The incubation was performed in duplicates.
as §2

SMILES | Detection of metabolite in rat liver [10] | Detection of metabolite after incubating BBR with rCYP450s [11] | Detection of metabolite after incubating BBR with HLMs [12] | Effect on cell-surface LDLR protein expression [2] | Effect on cell-surface InsR protein expression [3] | AMPK activation (AMPK-alpha phosphorylation) [6] | Effect on LDLR mRNA expression [7] | also measured
O=c1cc(-c2ccccc2)oc2c1ccc1ccccc12 [ANF, α-naphthoflavone] |  |  |  |  |  |  |  | Decrease of M2 formation [1]: about 40%
COc1ccc2cc3[n+](cc2c1OC)CCc1cc2c(cc1-3)OCO2 [BBR, Berberine] |  |  |  | up-regulatory effect | up-regulatory effect | most active compound | strongest up-regulator | Transformation of BBR into metabolites by CYP2C9 [4]: very weak effect; Reduction of blood cholesterol, triglyceride and glucose ([5]; patients with hyperlipidemia and type 2 diabetes, ref [2],[3],[5]-[7]): significant reduction; Side-effects on liver, kidney and muscle ([5]; patients, ref [2],[5]): no side-effects; Increase of InsR mRNA level [8]: over 2 folds; Share of BBR entering into blood stream (absorption in human gut) [9]: less than 10%
CC(=O)N1CCN(c2ccc(OCC3COC(Cn4ccnc4)(c4ccc(Cl)cc4Cl)O3)cc2)CC1 (stereo not drawn) [KET, ketoconazole] |  |  |  |  |  |  |  | Decrease of M2 formation [1]: not
COc1ccc2cc3[n+](cc2c1OC)CCc1cc(O)c(O)cc1-3 [M3, demethyleneberberine] | detectable | detectable | detectable |  |  | not significant | without effect | 
CN(CCOc1ccc(CC2SC(=O)NC2=O)cc1)c1ccccn1 (stereo not drawn) [rosiglitazone] |  |  |  | effect on neither LDLR nor InsR | effect on neither LDLR nor InsR |  |  | 
CCC(C)(C)C(=O)O[C@H]1C[C@@H](C)C=C2C=C[C@H](C)[C@H](CC[C@@H]3C[C@@H](O)CC(=O)O3)[C@H]21 [simvastatin] |  |  |  | increased LDLR expression only | not InsR |  |  | 

The next lines start with results.

Detection of metabolite in rat liver [10] | Detection of metabolite after incubating BBR with rCYP450s [11] | Detection of metabolite after incubating BBR with HLMs [12] | SMILES | Effect on cell-surface LDLR protein expression [2] | Effect on cell-surface InsR protein expression [3] | AMPK activation (AMPK-alpha phosphorylation) [6] | Effect on LDLR mRNA expression [7] | also measured
detectable | not detectable | not found | COc1ccc2cc3[n+](cc2c1O)CCc1cc2c(cc1-3)OCO2 [M1, berberrubine] |  |  | increased the activity of AMPK but with a less potency | remained to be active | Relative level of metabolite in rat liver [10]: lowest; LDLR mRNA up-regulating activity as percent of that of BBR [7]: 35%
detectable | detectable | detectable | COc1c(O)ccc2cc3[n+](cc12)CCc1cc2c(cc1-3)OCO2 [M2, thalifendine] |  |  | increased the activity of AMPK but with a less potency | remained to be active | Relative level of metabolite in rat liver [10]: highest level; LDLR mRNA up-regulating activity as percent of that of BBR [7]: 26%
detectable | not detectable | not found | COc1cc2c(cc1O)CC[n+]1cc3c(OC)c(OC)ccc3cc1-2 [M4, jatrorrhizine] |  |  | not significant | without effect | 
